Test results: ChEMBL document CHEMBL3399986, “Rapid 'one-pot' synthesis of a novel benzimidazole-5-carboxylate and its hydrazone derivatives as potential anti-inflammatory and antimicrobial agents” (Bioorg Med Chem Lett, 2015)
Converted amounts (≈) assume the structure as drawn.

Experiments:
Format in all cases: functional
Klebsiella pneumoniae [1] = experiment: Antimicrobial activity against Klebsiella pneumoniae MTCC 3384 assessed as zone of inhibition at 5 mg/ml after 24 hrs by agar well diffusion method; conditions: MTCC 3384, 24 h, read-out: IZ
Candida albicans [2] = experiment: Antifungal activity against Candida albicans MTCC 461 assessed as zone of inhibition at 5 mg/ml after 24 hrs by agar well diffusion method; conditions: MTCC 461, 24 h, read-out: IZ
Penicillium chrysogenum [3] = experiment: Antifungal activity against Penicillium notatum after 48 hrs by broth dilution method
Aspergillus niger [4] = experiment: Antifungal activity against Aspergillus niger MTCC 282 after 48 hrs by broth dilution method; conditions: MTCC 282, 48 h
Candida albicans [5] = experiment: Antifungal activity against Candida albicans MTCC 461 after 48 hrs by broth dilution method; conditions: MTCC 461, 48 h
Rattus norvegicus [6] = experiment: Antiinflammatory activity in rat assessed as inhibition of carrageenan-induced paw edema administered 30 mins prior to carrageenan challenge measured after 2 hrs relative to control
Escherichia coli [7] = experiment: Antimicrobial activity against Escherichia coli MTCC 4351 after 24 hrs by broth dilution method; conditions: MTCC 4351, 24 h
Klebsiella pneumoniae [8] = experiment: Antimicrobial activity against Klebsiella pneumoniae MTCC 3384 after 24 hrs by broth dilution method; conditions: MTCC 3384, 24 h
Rattus norvegicus [9] = experiment: Antiinflammatory activity in rat assessed as inhibition of carrageenan-induced paw edema administered 30 mins prior to carrageenan challenge measured after 1 hr relative to control
Escherichia coli [10] = experiment: Antimicrobial activity against Escherichia coli MTCC 4351 assessed as zone of inhibition at 5 mg/ml after 24 hrs by agar well diffusion method; conditions: MTCC 4351, 24 h, read-out: IZ
Candida tropicalis [11] = experiment: Antifungal activity against Candida tropicalis MTCC 183 after 48 hrs by broth dilution method; conditions: MTCC 183, 48 h
Aspergillus niger [12] = experiment: Antifungal activity against Aspergillus niger MTCC 282 assessed as zone of inhibition at 5 mg/ml after 24 hrs by agar well diffusion method; conditions: MTCC 282, 24 h, read-out: IZ
Candida tropicalis [13] = experiment: Antifungal activity against Candida tropicalis MTCC 183 assessed as zone of inhibition at 5 mg/ml after 24 hrs by agar well diffusion method; conditions: MTCC 183, 24 h, read-out: IZ
Bacillus subtilis [14] = experiment: Antimicrobial activity against Bacillus subtilis MTCC 441 assessed as zone of inhibition at 5 mg/ml after 24 hrs by agar well diffusion method; conditions: MTCC 441, 24 h, read-out: IZ
Bacillus subtilis [15] = experiment: Antimicrobial activity against Bacillus subtilis MTCC 441 after 24 hrs by broth dilution method; conditions: MTCC 441, 24 h
Staphylococcus aureus [16] = experiment: Antimicrobial activity against Staphylococcus aureus MTCC 3160 assessed as zone of inhibition at 5 mg/ml after 24 hrs by agar well diffusion method; conditions: MTCC 3160, 24 h, read-out: IZ
Staphylococcus aureus [17] = experiment: Antimicrobial activity against Staphylococcus aureus MTCC 3160 after 24 hrs by broth dilution method; conditions: MTCC 3160, 24 h
Penicillium chrysogenum [18] = experiment: Antifungal activity against Penicillium notatum assessed as zone of inhibition at 5 mg/ml after 24 hrs by agar well diffusion method; conditions: read-out: IZ
Rattus norvegicus [19] = experiment: Antiinflammatory activity in rat assessed as inhibition of carrageenan-induced paw edema administered 30 mins prior to carrageenan challenge measured after 3 hrs relative to control

Compound	zone of inhibition at 5000 µg/mL (Klebsiella pneumoniae [1])	zone of inhibition at 5000 µg/mL (Candida albicans [2])	MIC (Penicillium chrysogenum [3])	MIC (Aspergillus niger [4])	MIC (Candida albicans [5])	inhibition (INH) (Rattus norvegicus [6])	MIC (Escherichia coli [7])	MIC (Klebsiella pneumoniae [8])	inhibition (INH) (Rattus norvegicus [9])	zone of inhibition at 5000 µg/mL (Escherichia coli [10])	MIC (Candida tropicalis [11])	zone of inhibition at 5000 µg/mL (Aspergillus niger [12])	zone of inhibition at 5000 µg/mL (Candida tropicalis [13])	zone of inhibition at 5000 µg/mL (Bacillus subtilis [14])	MIC (Bacillus subtilis [15])	zone of inhibition at 5000 µg/mL (Staphylococcus aureus [16])	MIC (Staphylococcus aureus [17])	zone of inhibition at 5000 µg/mL (Penicillium chrysogenum [18])	inhibition (INH) (Rattus norvegicus [19])
CCCn1c(-c2ccc(Cl)cc2Cl)nc2cc(C(=O)N/N=C/c3cccc(Cl)c3)ccc21	14 mm	10 mm	25 µg/mL (≈ 51.5 µM)	12.5 µg/mL (≈ 25.7 µM)	100 µg/mL (≈ 206 µM)	45.73%	6.25 µg/mL (≈ 12.9 µM)	50 µg/mL (≈ 103 µM)	49.25%	21 mm	25 µg/mL (≈ 51.5 µM)	18 mm	16 mm	15 mm	25 µg/mL (≈ 51.5 µM)	15 mm	25 µg/mL (≈ 51.5 µM)	14 mm	43.35%
CCCn1c(-c2ccc(Cl)cc2Cl)nc2cc(C(=O)N/N=C/c3ccc(Cl)cc3)ccc21	17 mm	17 mm	25 µg/mL (≈ 51.5 µM)	25 µg/mL (≈ 51.5 µM)	12.5 µg/mL (≈ 25.7 µM)	53.56%	50 µg/mL (≈ 103 µM)	25 µg/mL (≈ 51.5 µM)	56.85%	10 mm	50 µg/mL (≈ 103 µM)	17 mm	14 mm	18 mm	12.5 µg/mL (≈ 25.7 µM)	12 mm	50 µg/mL (≈ 103 µM)	13 mm	46.56%
CCCn1c(-c2ccc(Cl)cc2Cl)nc2cc(C(=O)N/N=C/c3ccccc3F)ccc21	18 mm	19 mm	12.5 µg/mL (≈ 26.6 µM)	3.12 µg/mL (≈ 6.65 µM)	6.25 µg/mL (≈ 13.3 µM)	67.78%	6.25 µg/mL (≈ 13.3 µM)	12.5 µg/mL (≈ 26.6 µM)	60.55%	20 mm	6.25 µg/mL (≈ 13.3 µM)	22 mm	18 mm	19 mm	6.25 µg/mL (≈ 13.3 µM)	17 mm	12.5 µg/mL (≈ 26.6 µM)	16 mm	68.9%
CCCn1c(-c2ccc(Cl)cc2Cl)nc2cc(C(=O)N/N=C/c3ccc(F)cc3)ccc21	19 mm	18 mm	25 µg/mL (≈ 53.3 µM)	6.25 µg/mL (≈ 13.3 µM)	6.25 µg/mL (≈ 13.3 µM)	53.14%	6.25 µg/mL (≈ 13.3 µM)	6.25 µg/mL (≈ 13.3 µM)	61.48%	20 mm	6.25 µg/mL (≈ 13.3 µM)	20 mm	18 mm	19 mm	6.25 µg/mL (≈ 13.3 µM)	20 mm	6.25 µg/mL (≈ 13.3 µM)	15 mm	50.36%
CCCn1c(-c2ccc(Cl)cc2Cl)nc2cc(C(=O)N/N=C/c3ccc(Br)cc3)ccc21	17 mm	15 mm	50 µg/mL (≈ 94.3 µM)	6.25 µg/mL (≈ 11.8 µM)	25 µg/mL (≈ 47.1 µM)	69.51%	3.12 µg/mL (≈ 5.88 µM)	25 µg/mL (≈ 47.1 µM)	65.55%	22 mm	12.5 µg/mL (≈ 23.6 µM)	20 mm	16 mm	19 mm	6.25 µg/mL (≈ 11.8 µM)	17 mm	12.5 µg/mL (≈ 23.6 µM)	14 mm	69.05%
CCCn1c(-c2ccc(Cl)cc2Cl)nc2cc(C(=O)N/N=C/c3ccc(C)cc3)ccc21	18 mm	16 mm	6.25 µg/mL (≈ 13.4 µM)	3.12 µg/mL (≈ 6.7 µM)	12.5 µg/mL (≈ 26.9 µM)	52.72%	12.5 µg/mL (≈ 26.9 µM)	6.25 µg/mL (≈ 13.4 µM)	49.25%	18 mm	6.25 µg/mL (≈ 13.4 µM)	22 mm	18 mm	17 mm	12.5 µg/mL (≈ 26.9 µM)	20 mm	6.25 µg/mL (≈ 13.4 µM)	17 mm	47.73%
CCCn1c(-c2ccc(Cl)cc2Cl)nc2cc(C(=O)N/N=C/c3ccc(N(C)C)cc3)ccc21	16 mm	16 mm	50 µg/mL (≈ 101 µM)	25 µg/mL (≈ 50.6 µM)	12.5 µg/mL (≈ 25.3 µM)	53.84%	25 µg/mL (≈ 50.6 µM)	25 µg/mL (≈ 50.6 µM)	55%	15 mm	25 µg/mL (≈ 50.6 µM)	16 mm	16 mm	19 mm	6.25 µg/mL (≈ 12.6 µM)	17 mm	12.5 µg/mL (≈ 25.3 µM)	13 mm	50.94%
CCCn1c(-c2ccc(Cl)cc2Cl)nc2cc(C(=O)N/N=C/c3ccc(OC)cc3)ccc21	14 mm	15 mm	50 µg/mL (≈ 104 µM)	12.5 µg/mL (≈ 26 µM)	25 µg/mL (≈ 51.9 µM)	62.23%	12.5 µg/mL (≈ 26 µM)	50 µg/mL (≈ 104 µM)	51.11%	17 mm	25 µg/mL (≈ 51.9 µM)	18 mm	16 mm	10 mm	50 µg/mL (≈ 104 µM)	17 mm	12.5 µg/mL (≈ 26 µM)	12 mm	64.67%
CCCn1c(-c2ccc(Cl)cc2Cl)nc2cc(C(=O)N/N=C/c3ccccc3[N+](=O)[O-])ccc21	17 mm	14 mm	50 µg/mL (≈ 101 µM)	12.5 µg/mL (≈ 25.2 µM)	50 µg/mL (≈ 101 µM)	51.74%	12.5 µg/mL (≈ 25.2 µM)	25 µg/mL (≈ 50.4 µM)	46.66%	17 mm	25 µg/mL (≈ 50.4 µM)	18 mm	16 mm	16 mm	25 µg/mL (≈ 50.4 µM)	15 mm	25 µg/mL (≈ 50.4 µM)	12 mm	47.44%
CCCn1c(-c2ccc(Cl)cc2Cl)nc2cc(C(=O)N/N=C/c3cccc([N+](=O)[O-])c3)ccc21	18 mm	17 mm	12.5 µg/mL (≈ 25.2 µM)	6.25 µg/mL (≈ 12.6 µM)	6.25 µg/mL (≈ 12.6 µM)	53.14%	25 µg/mL (≈ 50.4 µM)	12.5 µg/mL (≈ 25.2 µM)	52.22%	15 mm	3.12 µg/mL (≈ 6.29 µM)	20 mm	20 mm	17 mm	12.5 µg/mL (≈ 25.2 µM)	17 mm	12.5 µg/mL (≈ 25.2 µM)	15 mm	42.91%
CCCn1c(-c2ccc(Cl)cc2Cl)nc2cc(C(=O)N/N=C/c3ccc([N+](=O)[O-])cc3)ccc21	17 mm	13 mm	25 µg/mL (≈ 50.4 µM)	6.25 µg/mL (≈ 12.6 µM)	50 µg/mL (≈ 101 µM)	50.2%	12.5 µg/mL (≈ 25.2 µM)	25 µg/mL (≈ 50.4 µM)	50%	18 mm	12.5 µg/mL (≈ 25.2 µM)	20 mm	16 mm	16 mm	25 µg/mL (≈ 50.4 µM)	17 mm	12.5 µg/mL (≈ 25.2 µM)	13 mm	46.27%
